Laboratory results published in article PMC12655819 (Pharmaceuticals, 2025).
Marks after values point to notes of the source that are not given here.

Legend:
[1] = Pharmacokinetics from plasma unbound levels in plasma ultrafiltrate (fMPA, fMPAG); assay type: in vivo, human; conditions: free level in plasma ultrafiltrate
Method: (§1) The AUC0–4, Tmax, and Cmax parameters were calculated using the R (version 4.5.1) package software (R Core Team, 2025), supported by RStudio (version 2025.05.1+513) from Posit PBC software (Boston, MA, USA). […] The vMPA and vMPAG capillary blood levels were corrected using formulas validated in our department (partially published by Kocur et al.) and expressed as estimated capillary plasma concentrations. […] Individual PK profiles for each patient included in the study are provided in the Supplementary File (Figures S4 and S5).
Next, the sample was centrifuged at 3000× g for 5 min at ambient conditions, and the supernatant was transferred into a chromatographic vial. Sample processing was performed at the Department of Drug Chemistry, Pharmaceutical and Biomedical Analysis, Medical University of Warsaw, Poland.
(§2) From each patient (if they consented to all sampling types), four samples were collected simultaneously at all defined time points of the dynamic PK profile (0, 0.5, 1, 2, and 4 h after drug administration). Whole blood was collected using standard venipuncture by a phlebotomist into a K3-EDTA test tube (Sarstedt, Nümbrecht, Germany). Plasma for analytical determination was obtained by centrifuging a portion of the whole blood and stored at −40 °C until assay. At the same time, 10 µL capillary blood samples were collected from a finger prick using the Mitra™ device (VAMS samples were stored in light-protected aluminum zip bags with desiccant at room temperature).

[2] = Pharmacokinetics from liquid (wet) saliva collected with Salivette (sMPA, sMPAG); assay type: in vivo, human
Method: as §1
The concentrations of sMPA and sMPAG in saliva were determined using a previously described LC-MS/MS method. Briefly, 100 µL of saliva was used for analysis. […] Samples were vortexed and evaporated to dryness. The dry residues were reconstituted in 100 μL of a mobile phase consisting of a 1:4 (v/v) mixture of methanol and water, both of which contained 0.1% formic acid. After double centrifugation, the samples were analyzed using a Shimadzu Ultra-Performance Liquid Chromatography (UPLC) system (Shimadzu Co., Kyoto, Japan) coupled with a triple quadrupole mass spectrometer (LCMS-8030; Simadzu Co., Kyoto, Japan). The method was linear over the concentration range of 2–500 μg/L for both sMPA and sMPAG. This part of the work was carried out with the support of the Centre of Innovative Pharmaceutical Technology, Poznan University of Medical Sciences (Poznan, Poland).
(§3) Additionally, the unstimulated saliva samples were simultaneously collected using the Salivette® device (Sarstedt, Nümbrecht, Germany) and Mitra™ 20 µL microsampling tips (Neoteryx/Trajan, Torrance, CA, USA (all saliva samples simultaneously to plasma and capillary blood sampling: 0, 0.5, 1, 2, and 4 h after drug administration). Patients had not eaten for at least 30 min before saliva collection, and their mouths were rinsed with water. The study was conducted in accordance with the Declaration of Helsinki and the International Council for Harmonization Guideline for Good Clinical Practice. The protocol was approved by the Bioethics Committee of the Children’s Memorial Health Institute, Warsaw, Poland (approval No. 15/KBE/2023, with subsequent amendments). Written informed consent was obtained from all participants and their legal guardians.

[3] = Pharmacokinetics from dried saliva collected with Mitra VAMS (vsMPA, vsMPAG); assay type: in vivo, human
Method: as §1
Samples were sonicated (36 °C, 30 min), vortexed (15 min), and frozen (−20 °C, 15 min). After centrifugation (10 min, 25,155× g), 350 µL of supernatant was transferred to a total recovery borosilicate vial (Finneran, Vineland, NJ, USA) and evaporated to dryness under a stream of nitrogen (40 °C) using Ultravap® Levante (Porvair, Hampshire, Great Britain). The residue was reconstituted in 150 µL of mobile phase A, filtered in a Verex™ vial, and 5 µL was injected into the LC–MS/MS system. Analyses were performed at the Department of Drug Chemistry, Pharmaceutical and Biomedical Analysis, Medical University of Warsaw, Poland.
as §3

[4] = Pharmacokinetics from capillary blood collected with Mitra VAMS (vMPA, vMPAG); assay type: in vivo, human
Method: as §1
Subsequently, the tip (after at least 1 h of drying) was placed in an 1.5 mL Eppendorf-type test tube (Eppendorf AG, Hamburg, Germany) containing 150 μL of pure deionized water. Next, the test tube was shaken at room temperature for 1 h using the automatic rotary vortex. Subsequently, 10 μL of IS solution and 150 μL of the precipitation mixture were added. The sample was then processed as described in Section 4.3.4. Sample processing was carried out at the Department of Drug Chemistry, Pharmaceutical and Biomedical Analysis, Medical University of Warsaw, Poland [21].
as §2

[5] = Stability of analytes in dried saliva Mitra VAMS tips; assay type: physicochemical; conditions: dried saliva on Mitra VAMS tips, room temperature (light-protected with desiccant), n=6
Method: Stability testing, a crucial component of method development and validation, was conducted through various experiments, including storage stability in the autosampler and stability of analytes in VAMS tips under different stress conditions. Analyte stability is deemed acceptable if the differences stay within the nominal range of ±15%. Additionally, the reproducibility of the injection was assessed during autosampler stability testing.

[6] = cited from earlier work
[7] = normalized to MMF dose, n = 20, mean (range)

- AUC(0–4) Normalized to Drug Dose [1, 7]: 0.596 (0.042–1.577) ^d mg × h/mL × g
- concentration at 0 h ([1]; human, plasma ultrafiltrate (unbound level in EDTA plasma), 0 h (pre-dose), n = 20, mean ± SD, read-out: C0 concentration): 22 ± 16 ng/mL
- concentration at 0.5 h ([1]; human, plasma ultrafiltrate (unbound level in EDTA plasma), 0.5 h post-dose, n = 20, mean ± SD, read-out: C0.5 concentration): 104 ± 125 ng/mL
- concentration at 1 h ([1]; human, plasma ultrafiltrate (unbound level in EDTA plasma), 1 h post-dose, n = 20, mean ± SD, read-out: C1 concentration): 149 ± 146 ng/mL
- concentration at 2 h ([1]; human, plasma ultrafiltrate (unbound level in EDTA plasma), 2 h post-dose, n = 20, mean ± SD, read-out: C2 concentration): 49 ± 41 ng/mL
- concentration at 4 h ([1]; human, plasma ultrafiltrate (unbound level in EDTA plasma), 4 h post-dose, n = 20, mean ± SD, read-out: C4 concentration): 31 ± 50 ng/mL
- Cmax ([1]; human, plasma ultrafiltrate (unbound level in EDTA plasma), pediatric renal transplant recipients (n = 20) on MMF (CellCept), steady state, 0–4 h post-dose, mean (range), read-out: Cmax): 160 ng/mL
- AUC(0-t) ([1]; human, plasma ultrafiltrate (unbound level in EDTA plasma), pediatric renal transplant recipients (n = 20) on MMF, mean (range)): 276 ng·h/mL
- Tmax ([1]; human, plasma ultrafiltrate (unbound level in EDTA plasma), pediatric renal transplant recipients (n = 20) on MMF, mean (range), read-out: Tmax): 54 min
- concentration at 0 h ([2]; human, unstimulated, Salivette, wet saliva, 0 h (pre-dose), n = 20, mean ± SD, read-out: C0 concentration): 8.24 ± 5.66 ng/mL
- concentration at 0.5 h ([2]; human, unstimulated, Salivette, wet saliva, 0.5 h post-dose, n = 20, mean ± SD, read-out: C0.5 concentration): 27.2 ± 7.86 ng/mL
- concentration at 1 h ([2]; human, unstimulated, Salivette, wet saliva, 1 h post-dose, n = 20, mean ± SD, read-out: C1 concentration): 51.6 ± 45.8 ng/mL
- concentration at 2 h ([2]; human, unstimulated, Salivette, wet saliva, 2 h post-dose, n = 20, mean ± SD, read-out: C2 concentration): 17.7 ± 16.1 ng/mL
- concentration at 4 h ([2]; human, unstimulated, Salivette, wet saliva, 4 h post-dose, n = 20, mean ± SD, read-out: C4 concentration): 8 ± 9.49 ng/mL
- AUC(0-t) ([2]; human, unstimulated, Salivette, wet saliva, pediatric renal transplant recipients (n = 20) on MMF, mean (range)): 107 ng·h/mL
- Tmax ([2]; human, unstimulated, Salivette, wet saliva, pediatric renal transplant recipients (n = 20) on MMF, mean (range), read-out: Tmax): 51 min
- Cmax ([2]; human, wet saliva (unstimulated, Salivette), pediatric renal transplant recipients (n = 20) on MMF, 0–4 h post-dose, mean (range), read-out: Cmax): 83.5 ng/mL
- AUC(0–4) Normalized to Drug Dose ([2]; wet saliva, normalized to MMF dose, n = 20, mean (range)): 300.18 (32.29–2716.80) ^c µg × h/mL × g
- AUC(0–4) Normalized to Drug Dose ([3]; dried saliva (Mitra VAMS), normalized to MMF dose, n = 20, mean (range)): 305.78 (33.88–2937.03) ^c µg × h/mL × g
- Cmax ([3]; human, dried saliva (Mitra VAMS 20 µL), pediatric renal transplant recipients (n = 20) on MMF, 0–4 h post-dose, mean (range), read-out: Cmax): 84.1 ng/mL
- concentration at 0 h ([3]; human, dried saliva (Mitra VAMS), 0 h (pre-dose), n = 20, mean ± SD, read-out: C0 concentration): 7.54 ± 4.89 ng/mL
- concentration at 0.5 h ([3]; human, dried saliva (Mitra VAMS), 0.5 h post-dose, n = 20, mean ± SD, read-out: C0.5 concentration): 27.7 ± 9.14 ng/mL
- concentration at 1 h ([3]; human, dried saliva (Mitra VAMS), 1 h post-dose, n = 20, mean ± SD, read-out: C1 concentration): 52.2 ± 40.9 ng/mL
- concentration at 2 h ([3]; human, dried saliva (Mitra VAMS), 2 h post-dose, n = 20, mean ± SD, read-out: C2 concentration): 17.1 ± 16.7 ng/mL
- concentration at 4 h ([3]; human, dried saliva (Mitra VAMS), 4 h post-dose, n = 20, mean ± SD, read-out: C4 concentration): 7.25 ± 8.03 ng/mL
- Tmax ([3]; human, dried saliva (Mitra VAMS), pediatric renal transplant recipients (n = 20) on MMF, mean (range), read-out: Tmax): 51 min
- concentration at 0 h ([4]; human, 0 h (pre-dose), n = 20, mean ± SD, read-out: C0 concentration): 1800 ± 1300 ng/mL
- concentration at 0.5 h ([4]; human, 0.5 h post-dose, n = 20, mean ± SD, read-out: C0.5 concentration): 9660 ± 8960 ng/mL
- concentration at 1 h ([4]; human, 1 h post-dose, n = 20, mean ± SD, read-out: C1 concentration): 10100 ± 5970 ng/mL
- concentration at 2 h ([4]; human, 2 h post-dose, n = 20, mean ± SD, read-out: C2 concentration): 4430 ± 3000 ng/mL
- concentration at 4 h ([4]; human, 4 h post-dose, n = 20, mean ± SD, read-out: C4 concentration): 1770 ± 2010 ng/mL
- AUC(0-t) ([4]; human, corrected to estimated capillary plasma concentration, n = 20, mean (range)): 21400 ng·h/mL
- Cmax ([4]; human, corrected to estimated capillary plasma concentration, pediatric renal transplant recipients (n = 20) on MMF, mean (range), read-out: Cmax): 12900 ng/mL
- Tmax ([4]; human, pediatric renal transplant recipients (n = 20) on MMF, mean (range), read-out: Tmax): 46.8 min
- AUC(0–4) Normalized to Drug Dose [4, 7]: 68.95 (20.71–444.79) ^d mg × h/mL × g
- recovery at 1 week ([5]; HQC): 97.2%
- recovery at 2 weeks ([5]; HQC): 96%
- recovery at 24 hours ([5]; HQC): 99.9%
- recovery at 3 days ([5]; HQC): 100%
- recovery at 1 week ([5]; LQC): 98%
- recovery at 2 weeks ([5]; LQC): 95.6%
- recovery at 24 hours ([5]; LQC): 101%
- recovery at 3 days ([5]; LQC): 99.1%
Structure (SMILES): COc1c(C)c2c(c(O)c1C/C=C(\C)CCC(=O)O)C(=O)OC2 [MPA, Mycophenolic acid]
- increase in free fraction ([6]; displacement by MPAG in severe renal impairment): 7%
- affinity for plasma proteins (binding) ([6]; general statement of the introduction): 97–99%
- time of peak plasma concentration after administration ([6]; plasma): 1 to 2 h
- unbound fraction ([6]; typical range): 1 to 2.5%
